{"source": "patent US8010296B2", "about": "“Apparatus and method for removing non-discriminatory indices of an indexed dataset” (Drexel University, priority 2002, dated 2011)", "tested_on": "rat liver", "settings": "treated rats, liver samples; selection by visual inspection and ALT measurement", "method": "Forty-eight polypeptide spectra were prepared from rat liver samples under four toxicological conditions (G=4).\nWhile it was desirable that samples from each group be completely separated from those of other groups, it was especially important that samples from Group 4 (high toxicity) were separated from the others.", "data": [{"smiles": "S=C=Nc1cccc2ccccc12", "note": "[Alpha-naphthyl Isothiocyanate (ANIT), Alpha-naphthyl Isothiocyanate]", "values": [{"measurement": "Toxicity", "value": "Mild"}]}, {"smiles": "ClC(Cl)(Cl)Cl", "note": "[Carbon Tetrachloride (CCl4), Carbon Tetrachloride]", "values": [{"measurement": "Toxicity", "value": "Mild"}]}]}
